The results in this text go back to patent US20260306502A1, “MITOCHONDRIAL UNCOUPLERS FOR TREATMENT OF METABOLIC DISEASES AND CANCER” (Mito Biopharma, LLC, priority 2022, published 2026).

As a reminder, the GI50 is the concentration at which growth is held to half of that of the control. High values mean lower sensitivity of the cells, low ones greater sensitivity of the cells.

“Also recorded” adds a separate entry of the source.

For one experiment, the system named is NIH3T3. Nature of the experiment: Cell growth inhibition assay (SRB), NIH3T3. As to conditions: Mus musculus, NIH3T3, 48 h. It counts as cell-based. On the procedure: Cell growth inhibition assays were performed using a protocol standardized by National Cancer Institute (NCI) for evaluating anti-cancer drugs. Various mammalian cell lines were used for the assays. Briefly, the cells were inoculated into 96 well microtiter plates. After cell inoculation, the microtiter plates were incubated for cell growth for 24 h prior to the addition of compounds. After 24 h, two plates of each cell line were fixed in situ with TCA, to represent a measurement of the cell population for each cell line at the time of compound addition (Tz). Test compounds were solubilized in dimethyl sulfoxide. At the time of test compound addition, five 10-fold or ½ log serial dilutions were made to provide a total of five test compound concentrations plus control. Aliquots of 100 μl of these different test compound dilutions were added to the appropriate microtiter wells already containing 100 μl of the medium, resulting in the required final test compound concentrations. […] The bound stain was subsequently solubilized with 10 mM trizma base, and the absorbance was read on an automated plate reader at a wavelength of 515 nm. Using the seven absorbance measurements [time zero, (Tz), control growth, (C), and test growth in the presence of a compound at the five concentration levels (Ti)], the percentage growth was calculated at each of the test compound concentrations levels.

In experiment [1] the test system is carbon tetrachloride (CCl4)-induced liver fibrosis NASH murine model. Nature of the experiment: CCl4-induced liver fibrosis NASH murine model. The class given is in vivo, mouse. The conditions noted are these: CCl4 mice. The procedure: CCl4 is a hepatotoxin that induces acute liver injury in mice and induces oxidative damage, inflammation, and liver fibrosis in mice, independent of liver steatosis, and thus is considered as a “pure” fibrotic model.
C57Bl6 male mice at the age of 7-8 weeks were randomized into 3 groups: vehicle, CCl4 alone treatment, CCl4 plus Compound treatment, n=7. CCl4 was diluted in olive oil (1:5 v/v), and intraperitoneally injected at a dose of 750 μl/kg to the mice, twice a week for 6 weeks. Compound treatment started at the beginning of CCl4 injection. At the end of treatment, the mice were euthanized and liver tissue was collected. For histology analyses, the liver tissue was fixed and paraffin embedded; tissue sections were stained with hematoxylin and eosin (H&E), or with Picrosirius red. The fibrosis severities were scored by a board-certified pathologist based on Picrosirius red stain of the liver. For immunoblotting analyses, the liver tissue was homogenized and the proteins were separated by native page gel electrophoresis. The levels of Collagen I and GAPDH were detected by Collagen I polyclonal antibody (Abcam ab34710) and GAPDH (14C10) Rabbit mAb (Cell signaling #2118).

Experiment [2] deals with high-fat diet (HFD)-induced diabetic mouse model. Nature of the experiment: Efficacy in high-fat diet (HFD)-induced diabetic/fatty liver mouse model. The class given is in vivo. The conditions noted are these: HFD mice, 3 weeks; for reversing fatty liver (liver steatosis, H&E histology): 5 mg/kg PO daily. On the procedure:
For HFD induced diabetic mouse model, C57Bl6 mice (male, n=6) were induced to obese and diabetic conditions by feeding high-fat diet (HFD, 60% fat calories, Research Diet, Inc. New Brunswick, NJ) for 3-4 months. […] During the 3-week period, the mice continued feeding HFD. […] The blood glucose levels were measured after an overnight fast, plasma insulin levels were tested after 5-6 hours fast, and the glycated HbA1c levels were determined in whole blood samples.
FIG. 15C and FIG. 15D show liver sections from mice fed HFD following 3 weeks of treatment with Compounds 25 and 64, respectively (P.O. dosing of 5 mg/kg, by daily gavage).
Experiments were similarly performed with other compounds, in either high-fat diet induced diabetes and fatty liver models, or in db/db mouse model, or in both, by daily oral gavage administration with low dosages.

The next experiment deals with TGF-β signaling pathway. Nature of the experiment: TGF-β signaling pathway activation (Smad2/3 phosphorylation) in LX-2 cells, immunoblotting. It counts as cell-based, human. As to conditions: 6 hrs, FIG. 17B. On the procedure:
Cells were then harvested, and immunoblotting analyses was performed with antibodies against p-Smad2/3 (phosphorylated Smad2/3), Smad2/3, or GAPDH, as indicated.
For orientation: A western blot detects proteins with antibodies after separation by electrophoresis.

Another experiment concerns MC38 cells. Nature of the experiment: Anti-cancer effect in combination with a PD-1 inhibitor, MC38 cells transplanted in liver. The conditions noted are these: in words. It counts as in vivo, mouse. The text has this: FIG. 20A is the experimental design (see Example B12). Briefly, C57/Bl6 mice intrahepatically transplanted with MC38 cancer cells (day 0) were subject to various treatments starting on day 7: aPD-1 or isotype, mice were either treated with PD-1 antibody or its isotype antibody (control) by intraperitoneal (IP) injection on indicated days (PD-1 antibody has a half-life of over 1 week in mice); #64 or vehicle, mice were either treated with Compound #64 or vehicle by daily gavage. FIG. 20B is a table depicting outcomes of the experiments described in FIG. 20A and Example B12. aPD-1+#64 represents mice treated with PD-1 antibody (IP) and #64 (daily gavage); aPD-1 represents mice treated with PD-1 antibody (IP) and vehicle (gavage); control, represents mice treated with isotype antibody (IP) and vehicle (gavage); n is number of mice in each group. Tumor-positive is the number of tumor-bearing mice in each group; tumor-free is the number of tumor-free mice in each group; tumor-free % is the percentage of tumor-free animals in each group. […]
The experimental design is illustrated in FIG. 20A. Mouse colon cancer cells, MC38, were transplanted in livers of immune competent B57/Bl6 mice, and the effect of the combinatory treatment was determined. […] Tumor incidence and volume were determined.

For the compound `COCCN(CCOC)Cc1cc(Cl)cc(C(=O)Nc2nc3ccc(C(F)(F)F)cc3s2)c1O` [Compound 25, 3-((bis(2-methoxyethyl)amino)methyl)-5-chloro-2-hydroxy-N-(6-(trifluoromethyl)benzo[d]thiazol-2-yl)benzamide], the GI50 with NIH3T3 was over 20 µM. Besides, the “effect on fibrosis formation and fibrosis scores” value in experiment [1] (7.5 mg/kg/day, 6 weeks) was “reduced fibrosis formation and improved fibrosis scores; also recorded: reduces fibrosis in CCl4 treated animals”. For the same compound, the “effect on collagen levels” value in experiment [1] (immunoblotting) is “reduces collagen levels”. Further, in experiment [2], the “reversing fatty liver (liver steatosis, H&E histology)” value is “highly efficacious in reversing fatty liver”. Moreover, the “reducing blood triglyceride levels and non-HDL cholesterol levels” value in experiment [2] (5 mg/kg/day gavage) was “efficacious”.
As for `COCCOCc1cc(C(F)(F)F)cc2sc(NC(=O)c3cc(Cl)cc(CN4C[C@@H](C)O[C@@H](C)C4)c3O)nc12` [Compound 64, 5-chloro-3-((cis-2,6-dimethylmorpholino)methyl)-2-hydroxy-N-(4-((2-methoxyethoxy)methyl)-6-(trifluoromethyl)benzo[d]thiazol-2-yl)benzamide], the “effect on TGF-β signaling pathway activation (Smad2/3 phosphorylation)” value in the experiment with TGF-β signaling pathway is on record as “blocks activation of TGF-β signaling pathway at early stages by inhibiting Smad2/3 phosphorylation”. Also, the “reversing fatty liver (liver steatosis, H&E histology)” value in experiment [2] is given as “highly efficacious in reversing fatty liver”. In addition, in the experiment on MC38 cells, the “efficacy in combinatory therapy with PD-1 antibody in treating metastatic cancer in mice” value is recorded as “efficacious in combinatory therapy with PD-1 antibody”.
